In PMC10380083, “Synthesis of Prostate-Specific Membrane Antigen-Targeted Bimodal Conjugates of Cytotoxic Agents and Antiandrogens and Their Comparative Assessment with Monoconjugates” (International Journal of Molecular Sciences, 2023):
*1 amine or outer side, *2 acyl side, *3 side chain or, on linkers, in order; H or OH if unused. Where a SMILES comes first, the peptide text is derived from it. [ ]: non-standard residue; d: D form. The star is where a group is joined. GluureaLys(ε-3-ClBenzyl) = O=C(O)CC[C@H](NC(=O)N[C@@H](CCCCN(Cc1cccc(Cl)c1)*)C(=O)O)C(=O)O; Dolaproine = CO[C@@H]([C@@H]1CCCN1)[C@@H](C)C(=O)O; Dil = CC[C@H](C)[C@H](NC)[C@@H](CC(=O)O)OC; X2 = O=C(CCCc1cn(CCCN[*:1])nn1)[*:2]; PABC = O=C(OCc1ccc(N[*:1])cc1)[*:2]; X1 = C[C@@H](N*)[C@@H](O)c1ccccc1; Cit = NC(=O)NCCC[C@H](N)C(=O)O; Suc = O=C(CCC(=O)[*:2])[*:1]; NMeV = CN[C@H](C(=O)O)C(C)C; Ahx = NCCCCCC(=O)O

Key:
22Rv1 cells = assay: In vitro cytotoxicity, MTS assay, 22Rv1; assay type: cell-based, human; conditions: 72 h, moderate PSMA expression, range 0.5 to 800 nM, triplicates
Description: (§1) The resulting bimodal conjugates were tested in vitro on three different PCa cell lines. We used LNCaP cells with high PSMA expression, 22Rv1 cells with moderate PSMA expression and PC-3 cells with extremely low PSMA expression. Different levels of PSMA expression in 22Rv1 and LNCaP cell lines allows evaluation of the effect of the level of expression on the toxicity of the target drugs. PSMA-negative cell line PC-3 allows a qualitative assessment of non-specific toxicity of the obtained compounds.
(§2) The cytotoxicity of the investigated substances was tested using the MTS assay with some modifications. Cells were seeded in the 96-well plates (Corning, New York, NY, USA) at concentration of 7000 cells per well for PC-3 culture, 12,000 cells per well for LNCaP cells and 20,000 cells per well for 22Rv1 line. The cells were counted using the automatic cell counter EVE. All cell lines were purchased from the American Type Culture Collection (ATCC, Manassas, VA, USA). After 1 day, serial dilutions of tested substances were added to the cells. Cell culture medium with addition of DMSO in appropriate concentrations was used as a negative control. DMSO (30%) was added in culture medium as a positive control. Cells were then incubated during 72 h at 37 °C and 5% CO2. Later, the culture medium from each well was removed and 20 μL of MTS reagent (CellTiter 96 AQueous Non-Radioactive Cell Proliferation Assay, Promega) were added to each well with 100 μL of new culture medium. After 4 h incubation at 37 °C in darkness, the absorbance of the solution was measured at 490 nm wavelength using Thermo Scientific Multiskan GO spectrometer. Cell viability was calculated as a percentage compared to control cells. The absorbance of MTS reagent in culture medium without cells was taken as zero. […] Experiments were performed in triplicates. Data were analyzed using Prism 9—GraphPad version 9.2.0 software. p values < 0.05 were considered significant.

PC-3 cells = assay: In vitro cytotoxicity, MTS assay, PC-3; assay type: cell-based, human; conditions: 72 h, extremely low PSMA expression, range 0.5 to 800 nM, triplicates
Description: as §1, §2

LNCaP cells = assay: In vitro cytotoxicity, MTS assay, LNCaP; assay type: cell-based; conditions: 72 h, high PSMA expression, range 0.5 to 800 nM, triplicates
Description: as §1, §2

| SMILES | CC50, 22Rv1 (22Rv1 cells) [nM] | CC50, PC-3 (PC-3 cells) [nM] | CC50, LNCaP (LNCaP cells) [nM] |
| --- | --- | --- | --- |
| CC[C@H](C)[C@@H]([C@@H](CC(=O)N1CCC[C@H]1[C@H](OC)[C@@H](C)C(=O)N[C@H](C)[C@@H](O)c1ccccc1)OC)N(C)C(=O)[C@@H](NC(=O)[C@@H](NC)C(C)C)C(C)C [MMAE, Monomethyl Auristatin E, reference compound] (H-[NMeV]V[Dil][Dolaproine]-X1) | 0.42 ± 0.2 | >800 | 0.69 ± 0.1 |
| CC[C@H](C)[C@@H]([C@@H](CC(=O)N1CCC[C@H]1[C@H](OC)[C@@H](C)C(=O)N[C@H](C)[C@@H](O)c1ccccc1)OC)N(C)C(=O)[C@@H](NC(=O)[C@H](C(C)C)N(C)C(=O)OCc1ccc(NC(=O)[C@H](CCCNC(N)=O)NC(=O)[C@@H](NC(=O)CCCc2cn(CCCNC(=O)[C@H](Cc3ccc(O)cc3)NC(=O)[C@H](Cc3ccccc3)NC(=O)CCC(=O)NCCCCCC(=O)N(CCCC[C@H](NC(=O)N[C@@H](CCC(=O)O)C(=O)O)C(=O)O)Cc3cccc(Cl)c3)nn2)C(C)C)cc1)C(C)C [I, reference compound] ({GluureaLys(ε-3-ClBenzyl)-Ahx-Suc}-FY[X2]V[Cit][PABC][NMeV]V[Dil][Dolaproine]-X1) | 78.5 ± 0.8 | >800 | 77.7 ± 1.3 |
